Data: ChEMBL document CHEMBL1806452, “New salicylamide and sulfonamide derivatives of quinoxaline 1,4-di-N-oxide with antileishmanial and antimalarial activities” (Bioorg Med Chem Lett, 2011)
pIC50: −log10 of the molar value.

Columns and labels:
Plasmodium falciparum [1] = assay: Antiplasmodial activity against chloroquine-resistant Plasmodium falciparum FCR-3 infected in human erythrocytes assessed as inhibition of [3H]hypoxanthine uptake after 48 hrs; type: functional, organism-based
Plasmodium falciparum [2] = assay: Ratio of chloroquine IC50 to compound IC50 for chloroquine-resistant Plasmodium falciparum FCR-3 infected in human erythrocytes; type: functional
Leishmania amazonensis [3] = assay: Leishmanicidal activity against axenic amastigotes of Leishmania amazonensis by MTT assay; type: functional, organism-based
Leishmania amazonensis [4] = assay: Ratio of amphotericin B IC50 to compound IC50 for axenic amastigotes of Leishmania amazonensis; type: functional
[5] = Cytotoxicity against mouse peritoneal macrophages after 48 hrs by trypan blue exclusion method; type: cell-based, Peritoneal macrophage cell
[6] = Selectivity index, ratio of CC50 for mouse peritoneal macrophages to IC50 for axenic amastigotes of Leishmania amazonensis; type: functional

| Compound | pIC50 (Plasmodium falciparum [1]) | Ratio IC50 (Plasmodium falciparum [2]) | pIC50 (Leishmania amazonensis [3]) | Ratio IC50 (Leishmania amazonensis [4]) | CC50 at 48 h [5] [µM] | Ratio CC50/IC50 [6] |
| --- | --- | --- | --- | --- | --- | --- |
| Cc1ccc2c(c1)[n+]([O-])c(C#N)c(NS(=O)(=O)c1ccc3ccccc3c1)[n+]2[O-] | < 4.61 | >82 | 4.79 | 81.5 | > 246 | >15.1 |
| Cc1cc2c(cc1C)[n+]([O-])c(NS(=O)(=O)c1ccc3ccccc3c1)c(C#N)[n+]2[O-] | < 4.62 | >79 | < 4.00 | >100 |  |  |
| N#Cc1c(NS(=O)(=O)c2ccccc2[N+](=O)[O-])[n+]([O-])c2ccc(Cl)cc2[n+]1[O-] | 4.76 | 58 | 5.51 | 15.5 | 6.8 | 2.2 |
| N#Cc1c(NS(=O)(=O)c2ccc([N+](=O)[O-])cc2)[n+]([O-])c2ccc(Cl)cc2[n+]1[O-] | < 4.63 | >79 | 5.68 | 10.5 | 7.9 | 3.8 |
| N#Cc1c(NS(=O)(=O)c2ccc([N+](=O)[O-])cc2)[n+]([O-])c2cc(Cl)c(Cl)cc2[n+]1[O-] | 4.73 | 62 | 4.80 | 79.5 | 89.1 | 5.6 |
| N#Cc1c(NS(=O)(=O)c2ccc([N+](=O)[O-])cc2)[n+]([O-])c2ccccc2[n+]1[O-] | 4.70 | 67 | 4.06 | 430 |  |  |
| CC(=O)Oc1ccccc1C(=O)Nc1c(C#N)[n+]([O-])c2ccccc2[n+]1[O-] | 4.38 | 138 | 3.95 | 559 |  |  |
| CC(=O)Oc1ccccc1C(=O)Nc1c(C#N)[n+]([O-])c2cc(Cl)ccc2[n+]1[O-] | 4.97 | 36 | 4.47 | 168 |  |  |
| CC(=O)Oc1ccccc1C(=O)Nc1c(C#N)[n+]([O-])c2cc(C)ccc2[n+]1[O-] | 4.28 | 176 | 4.73 | 94 | 21.7 | 1.1 |
| COc1ccc2c(c1)[n+]([O-])c(C#N)c(NC(=O)c1ccccc1OC(C)=O)[n+]2[O-] | 4.57 | 90 | 4.37 | 212 |  |  |
| CC(=O)Oc1ccccc1C(=O)Nc1c(C#N)[n+]([O-])c2cc(F)c(F)cc2[n+]1[O-] | 4.44 | 120 | 4.83 | 74 | 10.5 | 0.7 |
| CC(=O)Oc1ccccc1C(=O)Nc1c(C#N)[n+]([O-])c2cc(C)c(C)cc2[n+]1[O-] | 4.23 | 198 | 4.75 | 88 | 12.5 | 0.7 |
| CC(=O)Oc1ccccc1C(=O)Nc1c(C#N)[n+]([O-])c2cc(F)ccc2[n+]1[O-] | 5.13 | 25 | 5.14 | 36.5 | 13.6 | 1.8 |
| N#Cc1c(NS(=O)(=O)c2ccc3ccccc3c2)[n+]([O-])c2ccc(Cl)cc2[n+]1[O-] | < 4.63 | >78 | 4.70 | 100 | 88.6 | 4.4 |
| C[C@@H]1[C@H](O)[C@@H](C)/C=C/C=C/C=C/C=C/C=C/C=C/C=C/[C@H](O[C@@H]2O[C@H](C)[C@@H](O)[C@H](N)[C@@H]2O)C[C@@H]2O[C@](O)(C[C@@H](O)C[C@@H](O)[C@H](O)CC[C@@H](O)C[C@@H](O)CC(=O)O[C@H]1C)C[C@H](O)[C@H]2C(=O)O [AMPHOTERICIN B] |  |  |  | 1 | 4.4 |  |
| CCN(CC)CCCC(C)Nc1ccnc2cc(Cl)ccc12 (stereo not drawn) [CHLOROQUINE] |  |  | 4.70 |  | 88.6 |  |
